Consider two compounds from US20070282004A1, “Use of a Cyclopentenone Prostaglandin for Delaying for the Onset and/or Preventing the Continuation of Labour” (Imperial College Innovations Limited, priority 2003, published 2007).

Assay [1] addresses T1, NF-κB (Homo sapiens, UniProt P19838+Q04206).
T1 construct: nuclear protein extracts from myometrial cells; endogenous in cells; host or cells: primary human myometrial cells (term, passage 1-4)
Put plainly: EMSA of NF-κB DNA binding in nuclear extracts of treated amnion cells. The assay is classed as cell-based. Conditions: amnion cells treated with 15d-PGJ2 in the presence of the PPAR-γ inhibitor. As for the experimental part: (§1) Placentae were obtained from patients at term either at elective Caesarean section prior to labour (L−) or following spontaneous labour onset and vaginal delivery (L+). Amnion cells were prepared as described in Bennett et al., (1989). Briefly, the amnion was separated from the placenta, washed 3× in PBS, cut into strips, and incubated in 0.5 mM EDTA in PBS for 15 min. The strips were washed in PBS 2× and digested with 2.5 mg/ml dispase in serum-free DMEM for 35 min at 37° C. The amnion was then shaken vigorously in DMEM, 10% FCS to dissociate the cells, the remaining strips discarded, and the cell suspension pelleted at 175 g for 10 min and cultured in DMEM, 10% FCS (Sigma), 1% L-glutamine, 1% penicillin-streptomycin.
(§2) Nuclear and cytosolic protein extracts were obtained from cultured amnion cells as described by Schreiber et al (1989). For nuclear/cytosolic fractionation, confluent cell monolayers were scraped and lysed using a buffer containing 10 mM HEPES, 10 mM KCl, 0.1 mM EDTA, 0.1 mM EGTA, 2 mM DTT, 1% (v/v) NP-40 and complete protease inhibitor tablets (CPIs, Roche), diluted to manufacturer's instructions. Cell lysates were incubated on ice for 10 min and NP-40 added to a final concentration of 1% (v/v). Lysates were vortexed for 10 secs and centrifuged for 30 secs at 4° C., 12000 g. The supernatants were retained as the cytosolic protein extracts. The pellets were resuspended in buffer containing 10 mM HEPES, 10 mM KCl, 0.1 mM EDTA, 0.1 mM EGTA, 2 mM DTT, 400 mM NaCl, 1% NP-40 (v/v) and CPIs. Samples were shaken vigorously for 15 min in an ice bath. The nuclear protein extracts were obtained in the supernatant following a 5 min centrifugation at 4° C., 12000 g.
(§3) Sense and antisense strands (175 nmole/ml each) were incubated in annealing buffer (10 mM Tris-HCl pH7.5, 100 mM NaCl, 1 mM EDTA) for 10 min at 65° C., and allowed to cool at room temperature for 2 h. 3.5 pmole double-stranded oligonucleotides were end-labelled with 0.37 MBq ^32P(γATP) by incubating for 30 min at 37° C. with T4 polynucleotide kinase. Labelled oligonucleotides were recovered by centrifugation at 3000 rpm for 2 min through MicroSpin G-25 or G-50 sephadex columns (Amersham Biosciences).
(§4) 3-5 μg protein extracts were incubated on ice for 1 h with non-radiolabelled non-specific oligonucleotide (poly(dI-dC) or Oct-1) in a binding buffer (20% (v/V) glycerol, 5 mM MgCl2, 2 mM EDTA, 50 mM Tris-HCl pH7.5, 250 mM NaCl, 2 mM DTT), followed by a 45 min incubation with 0.035 pmole ^32P(γ(ATP)-end labelled oligonucleotide probes:
(§5) Oct-1 or SP-1 consensus sequences were used as a controls for a NF-κB-specific effect. The resulting protein/DNA complexes were separated in a 4% acrylamide gel, the gel dried under vacuum at 80° C. and exposed to X-ray film. For supershift analysis, samples were incubated with 2 μg antibodies for 30 min on ice prior to incubation with oligonucleotides. Non-radio-labelled oligonucleotides were used at 100-fold molar excess for specific and non-specific competition for DNA binding. Reagents for EMSA were obtained from Promega Life Sciences, Delta House, Chilworth Research Centre, Southampton SO16 7NS, United Kingdom.
A general note: In EMSA bound probe runs differently from free probe, usually more slowly.

Assay [2] deals with T2, PPAR-γ (Homo sapiens, UniProt P37231).
T2 sequence (P37231 1-505): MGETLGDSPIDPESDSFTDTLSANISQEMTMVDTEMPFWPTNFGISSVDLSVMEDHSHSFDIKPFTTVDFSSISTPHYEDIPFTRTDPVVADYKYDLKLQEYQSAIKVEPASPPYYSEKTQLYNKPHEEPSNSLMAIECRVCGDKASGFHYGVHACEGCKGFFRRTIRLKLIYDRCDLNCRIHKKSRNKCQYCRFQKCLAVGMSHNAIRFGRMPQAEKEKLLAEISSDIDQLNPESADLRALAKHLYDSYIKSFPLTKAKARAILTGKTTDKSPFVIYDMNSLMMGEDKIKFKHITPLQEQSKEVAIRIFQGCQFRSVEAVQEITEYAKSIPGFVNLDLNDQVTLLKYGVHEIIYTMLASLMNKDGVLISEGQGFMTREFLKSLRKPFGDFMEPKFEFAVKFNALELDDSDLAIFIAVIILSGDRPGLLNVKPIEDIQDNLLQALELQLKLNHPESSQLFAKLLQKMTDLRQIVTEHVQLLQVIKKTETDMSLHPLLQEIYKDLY
The note with it: covalent modification of Cys285 (Leesnitzer et al., 2002); cited from earlier work.

Assay [3] deals with T1, NF-κB. Put plainly: EMSA of NF-κB DNA binding in nuclear extracts of treated myometrial cells. Format: cell-based. The note with it: myometrial cells. The procedure:
(§6) Myometrial tissue was collected at term from the upper margin of uterine incision at the time of lower segment caesarean section either prior to the onset of labour (L−) or […] (L+). L+ samples were collected by Dr Mark Johnson and Dr S Soorrana at Chelsea & Westminster Hospital. Myometrial tissue was dissected, rinsed in PBS, and digested in serum-free DMEM containing 15 mg/ml collagenase 1A (Sigma), 15 mg/ml collagenase X, and 50 mg/ml bovine serum albumin for 45 min at 37° C. The cell suspension was filtered through a cell strainer, centrifuged at 400 g for 5 min, and the pellet re-suspended and plated out in DMEM, 10% FCS (Helena BioScience), 1% L-glutainine, 1% penicillin-streptomycin. Cells were used between passage numbers 1-4.
as §2, §3, §4, §5

For assay [4], the system named is NF-κB. Put plainly: NF-κB-dependent luciferase reporter (κB.BG.Luc) in amnion cells. The assay is classed as cell-based, human. Conditions: L− or L+ amnion cells, treated 2 h, IL-1β 1 ng/ml 6 h. The procedure: . Values are normalised for b-gal reporter activity.
as §1
pGL3.6κB.BG.luc was the reporter construct used to assess NF-κB-mediated transcription, while the mutant pGL3.6κBmut.luc and empty pGL3.BG.luc were used as controls (Schwarzer et al., 1998).
pGL3.6κB.BG.luc: a NF-κB-dependent reporter construct with 6 copies of the NF-κB binding site. It contains two tandem repeats of the sequence 5′-GGG GAC TTT C CC TGGGGACTTTCCCTGGGGACTTTCCC-3′, which contains three copies of the decameric NF-κB binding site (underlined) upstream of a minimal β-globin promoter driving a luciferase gene.
Cells were co-transfected with the renilla vector pRL-CMV or β-galactosidase vector pCH110 as internal controls for transfection efficiencies.
A general note: Reporter assays use an easily measured gene product as a stand-in for the process of interest.

For assay [5], the system named is COX-2. The experiment in a line: Western immunoblot of IL-1β-induced COX-2 protein in myometrial cells. Conditions: treated 2 h, IL-1β 6 h. The assay is classed as cell-based, human. As for the experimental part: as §6
Nuclear and cytosolic protein extracts were obtained from cultured amnion cells as described by Schreiber et al (1989). […]
Protein samples (20-70 μg) were mixed with Laemmli sample buffer (1:1) containing β-mercaptoethanol (5%), and boiled for 5 min. […] The blots were then incubated with HRP-conjugated secondary antibody (diluted 1:2000 in 1% non-fat milk in PBS-T buffer) for 1 h and washed three times (10 min each) in PBS-T. Signal detection was achieved using enhanced chemi-luminescence (ECL plus system, Amersham Pharmacia Biotech) according to manufacturer's instructions. […]
For orientation: In western blotting, separated proteins are transferred to a membrane and probed.

Assay [6] concerns PPARα. The note with it: GAL4 chimera transfection system (Kehrer et al., 2001); cited from earlier work.

T1 sequence (Q04206 whole entry): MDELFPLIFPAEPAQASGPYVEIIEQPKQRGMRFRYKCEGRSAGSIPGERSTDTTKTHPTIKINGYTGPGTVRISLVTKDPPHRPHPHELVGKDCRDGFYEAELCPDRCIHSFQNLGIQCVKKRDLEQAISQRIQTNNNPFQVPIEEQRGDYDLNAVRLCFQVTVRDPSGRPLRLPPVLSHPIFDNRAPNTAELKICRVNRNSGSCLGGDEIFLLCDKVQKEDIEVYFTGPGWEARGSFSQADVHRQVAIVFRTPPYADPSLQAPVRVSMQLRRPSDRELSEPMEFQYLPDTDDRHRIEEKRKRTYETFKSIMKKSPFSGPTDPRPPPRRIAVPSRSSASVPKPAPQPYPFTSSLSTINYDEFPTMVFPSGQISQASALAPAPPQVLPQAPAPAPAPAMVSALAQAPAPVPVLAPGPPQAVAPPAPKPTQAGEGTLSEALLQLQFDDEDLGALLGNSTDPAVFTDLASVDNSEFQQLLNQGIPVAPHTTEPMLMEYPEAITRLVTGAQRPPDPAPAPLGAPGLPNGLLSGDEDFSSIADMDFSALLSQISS
T1 sequence (P19838 1-433 limits assumed): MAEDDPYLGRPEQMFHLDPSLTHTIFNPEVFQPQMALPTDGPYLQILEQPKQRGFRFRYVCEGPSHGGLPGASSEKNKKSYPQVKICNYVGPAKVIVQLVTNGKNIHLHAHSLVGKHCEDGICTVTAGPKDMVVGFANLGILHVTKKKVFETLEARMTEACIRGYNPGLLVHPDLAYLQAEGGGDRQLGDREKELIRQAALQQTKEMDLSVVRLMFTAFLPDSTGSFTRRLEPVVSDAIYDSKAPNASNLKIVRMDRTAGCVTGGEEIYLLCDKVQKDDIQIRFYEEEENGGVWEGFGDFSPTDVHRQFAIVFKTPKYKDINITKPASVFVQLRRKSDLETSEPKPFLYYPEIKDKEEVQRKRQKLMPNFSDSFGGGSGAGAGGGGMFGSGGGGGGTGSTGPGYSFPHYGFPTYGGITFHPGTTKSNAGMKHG

On to `O=C(Nc1ccccc1)c1cc([N+](=O)[O-])ccc1Cl` [GW-9662, reference compound], for which the “Alleviation of 15d-PGJ2 inhibition of NF-κB DNA binding” value in assay [1] is “failed to alleviate”; in assay [1] (listed as GW9662) it was “does not alleviate”. Further, the “Binding to PPAR-γ” value in assay [2] is recorded as “binds irreversibly”.

On to `Cc1cccc(Nc2cc(Cl)nc(SCC(=O)O)n2)c1C` [WY-14643, reference compound], for which the “NF-κB DNA binding (EMSA)” value in assay [3] (10-100 μM concentrations) is listed as “had no effect”. Moreover, the “IL-1β-induced NF-κB DNA binding (EMSA)” value in assay [3] (treated 2 h, then IL-1β 15 min) is given as “do not inhibit”. Further, the “IL-1β-induced NF-κB transcriptional activity (κB.BG.Luc reporter)” value in assay [4] is recorded as “did not”. Besides, in assay [5], the “IL-1β-induced COX-2 expression” value was “not”. Moreover, in assay [6], the “Doses that transactivate PPARα” value was 5 to 25 µM.
